The species entered for experiment [1] is Homo sapiens. Put plainly: Potency against purified human milk alpha(1,3/4) fucosyltransferase; IA inactive.
The species named for experiment [2] is Homo sapiens. Kind of experiment: Kinetic constant for purified human milk alpha(1,3/4) fucosyltransferase.

Potency and Km data for two compounds are collected here from ChEMBL document CHEMBL1130671, “beta Gal(1-->S-4)beta GlcNac--OR: a galactosidase-stable substrate for alpha(1-->3)fucosyltransferase” (Bioorg Med Chem Lett, 1998).

Active and inactive are the calls of the source. No cut-off for these calls is given here.

As to `COC(=O)CCCCCCCCOC1OC(CO)C(OC2SC(CO)C(O)C(O)C2O)C(O)C1NC(C)=O` (configuration not stated), the Potency entry in the experiment filed under Homo sapiens [1] is “inactive”.
As usually defined, the Km is the concentration of substrate that gives half-maximal velocity. `COC(=O)CCCCCCCCOC1OC(CO)C(SC2OC(CO)C(O)C(O)C2O)C(O)C1NC(C)=O` (configuration not stated): the Km in the experiment listed under Homo sapiens [2] was determined as 230 µM.
